Experimental data taken from PMC11249646, “Small-Molecule Disruptors of the Interaction between Calcium- and Integrin-Binding Protein 1 and Integrin αIIbβ3 as Novel Antiplatelet Agents” (ACS Pharmacology & Translational Science, 2024).
Like-named read-outs stand apart in the source and are kept apart here.

How the values were obtained:
[1] = molecular target: T1, GST-CIB1 : F-scrambled peptide (Homo sapiens, UniProt Q99828); experiment: FP scrambled-peptide counter screen, 1536-well format; assay type: binding; conditions: for COUNTERSCREEN Curve Class / Curve Class (counterscreen): qHTS curve class; for IC50: read-out: IC50 [μM] (counterscreen)
T1 construct: made in house; host or cells: BL-21 plus RIL cells (E. coli)
T1 sequence (Q99828 1-191): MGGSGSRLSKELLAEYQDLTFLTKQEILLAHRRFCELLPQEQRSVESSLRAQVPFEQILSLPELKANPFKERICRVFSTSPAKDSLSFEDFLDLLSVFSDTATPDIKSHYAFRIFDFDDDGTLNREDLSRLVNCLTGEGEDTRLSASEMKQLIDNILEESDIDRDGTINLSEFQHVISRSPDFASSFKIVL

[2] = molecular target: T2, CIB1 and αIIb interaction (CIB1-GST : F-αIIb peptide) (Homo sapiens, UniProt Q99828); experiment: FP assay, 1536-well qHTS format (primary and confirmatory screen); assay type: binding; conditions: for CONFIRMATORY SCREEN Curve Class / Curve Class (confirmatory screen): qHTS curve class
T2 construct: made in house; host or cells: BL-21 plus RIL cells (E. coli)
T2 sequence (Q99828 1-191): T1 sequence (Q99828 1-191)

[3] = qHTS primary screen hits, Table S2, negative = inhibition
[4] = qHTS primary screen hits, Table S2, negative sign = inhibitory curve, several classes where COUNT > 1
[5] = qHTS primary screen hits, Table S2, read-out: IC50
[6] = Table S3, counterscreen, negative = inhibition
[7] = Table S3, confirmatory screen, a negative sign marks inhibitory curves
[8] = Table S3, confirmatory screen, negative = inhibition
[9] = counterscreen, negative sign = inhibitory curve
[10] = confirmatory screen, negative sign = inhibitory curve
[11] = qHTS FP screen hits, Table S2, negative = inhibition
[12] = scrambled-peptide counterscreen
[13] = confirmatory screen, read-out: IC50 [μM] (confirmatory screen)

Row | SMILES | COUNTERSCREEN Efficacy (%) ([1]; counterscreen) | COUNTERSCREEN Curve Class ([1]; counterscreen) | CONFIRMATORY SCREEN Efficacy (%) ([2]; confirmatory screen) | CONFIRMATORY SCREEN Curve Class ([2]; confirmatory screen) | Efficacy (%) [2, 3] [%] | Curve Class [2, 4] | IC50 [2, 5] [µM] | Efficacy (%) (counterscreen) [1, 6] | IC50 ([1]; Table S3, counterscreen) [µM] | Curve Class (confirmatory screen) [2, 7] | Efficacy (%) (confirmatory screen) [2, 8] | Efficacy (%) (counterscreen) ([1]; counterscreen) | Curve Class (counterscreen) [1, 9] | Efficacy (%) (confirmatory screen) ([2]; confirmatory screen) | Confirm? (confirmatory screen) ([2]; confirmatory screen, YES/NO) | Curve Class (confirmatory screen) [2, 10] | also measured
1 | COC(=O)c1ccc(O)c2ncc(-c3ccc(C(=O)N4CCNCC4)cc3)cc12.O=C(O)C(F)(F)F [NCGC00189509-01] | -25 | 4 | -16 | 4 | -45 | -1.2 | 28.2 | – | – | – | – | – | – | – | – | – | –
2 | NS(=O)(=O)c1ccc(Cc2c(-c3ccc(F)c(-c4ccc(F)cc4)c3)nn(-c3nc(C(=O)O)cs3)c2C2CC2)cc1F.O=C(O)C(F)(F)F [NCGC00381623-01] | – | – | – | – | -25 | -2.4 | 39.8 | 250 | 79.4 | 3 | 124 | – | – | – | – | – | –
3 | O=C1Nc2cc(Cl)ccc2Nc2cscc21 [NCGC00167991-01] | – | – | – | – | -66 | -2.2 | 79.4 | – | – | – | – | -57 | -3 | -75 | YES | -3 | IC50 ([1]; counterscreen): 50.1 µM
4 | O=C(NC1=CC(=O)[C@H]2O[C@H]2C1=O)c1ccccc1O [NCGC00168093-01] | – | – | – | – | -29 | -2.4 | 31.6 | -54 | 50.1 | -2.4 | -49 | – | – | – | – | – | Curve Class (counterscreen) ([1]; Table S3, counterscreen, a negative sign marks inhibitory curves): -2.4; Confirm? (confirmatory screen) ([2]; Table S3, confirmatory screen, YES/NO call): YES; IC50 ([2]; Table S3, confirmatory screen, read-out: IC50 [μM] (confirmatory screen)): 56.2 µM
5 | Cc1ccc(S(=O)(=O)Nc2ccc(Br)cc2C(=O)Nc2nc(-c3ccccc3)cs2)cc1.O=C(O)C(F)(F)F [NCGC00262989-01] | – | – | – | – | -26 | -2.4 | 20 | 243 | 35.5 | 2.4 | 47 | – | – | – | – | – | –
6 | O=C(O)C(F)(F)F.O=C(O)c1csc(-n2nc(-c3ccc(F)c(F)c3)c3cccc(O)c32)n1 [NCGC00356386-01] | 0 | 4 | -21 | 4 | – | – | – | – | – | – | – | – | – | – | – | – | Efficacy (%) [2, 11]: -22%; IC50 ([2]; qHTS FP screen hits, Table S2, read-out: IC50): 3.2 µM
7 | CN(C)C(=S)SSC(=S)N(C)C [NCGC00091563-12] | – | – | – | – | – | – | – | – | – | – | – | – | – | – | – | – | COUNTERSCREEN Efficacy (%) [1, 12]: 14%; COUNTERSCREEN Confirm? ([1]; scrambled-peptide counterscreen, YES/NO call): YES; COUNTERSCREEN Curve Class [1, 12]: 4; IC50 ([2]; IC50 [μM]): 39.8 µM; CONFIRMATORY SCREEN Confirm? ([2]; confirmatory screen, YES/NO call): YES; CONFIRMATORY SCREEN Curve Class [2, 10]: -1.2; CONFIRMATORY SCREEN Efficacy (%) ([2]; confirmatory screen, negative = inhibition): -67%; IC50 ([2]; confirmatory screen, read-out: CONFIRMATORY SCREEN IC50): 7.1 µM; Efficacy (%) [2, 11]: -71%; Curve Class ([2]; qHTS FP screen hits, Table S2, one class per curve where COUNT > 1, negative sign = inhibitory curve): -2.2
8 | COc1ccc2c(=O)n3nc(Nc4cccc(N5CCN(C)CC5)c4)sc3nc2c1.Cl [NCGC00187813-01] | -16 | 4 | -43 | 4 | -22 | -1.4 | 17.8 | – | – | – | – | – | – | – | – | – | –
9 | Cc1ccccc1C(=O)N1CCc2cc(-c3nc(NC(=O)Cc4ccc(OCCOCCOCCN)cc4)sc3C)ccc21.O=C(O)C(F)(F)F [NCGC00351618-01] | – | – | – | – | -25 | -1.4 | 17.8 | – | – | – | – | -31 | -2.4 | -41 | YES | -1.2 | IC50 ([1]; counterscreen): 11.2 µM; IC50 [2, 13]: 39.8 µM
10 | O=C(O)C(F)(F)F.Oc1cccc2c(-c3nnn[nH]3)ccnc12 [NCGC00183786-01] | – | – | – | – | -27 | -1.2 | 3.5 | – | – | – | – | -23 | 4 | -29 | YES | -1.4 | Confirm? (counterscreen) ([1]; counterscreen, YES/NO): YES; IC50 [2, 13]: 25.1 µM
